# Test results published in US5807851A, “2,3-Benzodiazepine Derivatives as non-competitive AMPA” (Egis Gyogyszergyar Rt., priority 1997, dated 1998).
# Tested on: AMPA receptor
# Experiment: In vitro kainate antagonistic activity: retinal spreading depression on isolated chicken retina
# Format: cell-based
# Conditions: isolated chicken retina preparations; spreading depression developed with 5 microM of kainate; at least 3 concentrations
# Experimental: Antagonizing the effect of kainate (in vitro test)
# The in vitro activity of the compounds was determined on isolated chicken retina preparations /M. J. Sheardown, Brain Res., 607, 189 (1993)/. The spreading depression was developped with 5 microM of kainate (the chemical name of kainic acid is 2-carboxy-4-isopropenyl-3-pyrrolidine-acetic acid), and the IC50 values were determined according to Sheardown. The compounds were tested in at least 3 concentrations. Compounds having AMPA antagonistic activity inhibit the response to the kainate having AMPA receptor agonistic activity, and the inhibition obtained depends on the concentration of the compounds.
structure (smiles),measurement,value
"CC1=NN=C(c2ccc(N)cc2)c2cc3c(cc2C1)OCO3 [A, reference compound]",IC50,9.5 µM
"CC(=O)N1N=C(c2ccc(N)cc2)c2ccc(Cl)cc2CC1C (stereo not shown) [Example 2, 3-Acetyl-1-(4-aminophenyl)-7-chloro-4-methyl-4,5-dihdyro-3H-2,3-benzodiazepine]",IC50,3.2 µM
"CNC(=O)N1N=C(c2ccc(N)cc2)c2ccc(Cl)cc2CC1C (stereo not shown) [Example 4, 1-(4-Aminophenyl)-7-chloro-4-methyl-3-(methylcarbamoyl)-4,5-dihydro-3H-2,3-benzodiazepine]",IC50,3.6 µM
"CC(=O)N1N=C(c2ccc(N)cc2)c2cc(Cl)ccc2CC1C (stereo not shown) [Example 6, 3-Acetyl-1-(4-aminophenyl)-8-chloro-4-methyl-4,5-dihydro-3H-2,3-benzodiazepine]",IC50,8.2 µM
"CNC(=O)N1N=C(c2ccc(N)cc2)c2cc(Cl)ccc2CC1C (stereo not shown) [Example 8, 1-(4-Aminophenyl)-8-chloro-4-methyl-3-methylcarbamoyl-4,5-dihydro-3H-2,3-benzodiazepine]",IC50,4.6 µM
"CC(=O)N1N=C(c2ccc(N)cc2)c2cc(Cl)c(Cl)cc2CC1C (stereo not shown) [Example 10, 3-Acetyl-1-(4-aminophenyl)-7,8-dichloro-4-methyl-4,5-dihydro-3H-2,3-benzodiazepine]",IC50,2.5 µM
"CNC(=O)N1N=C(c2ccc(N)cc2)c2cc(Cl)c(Cl)cc2CC1C (stereo not shown) [Example 12, 1-(4-Aminophenyl)-7,8-dichloro-4-methyl-3-methylcarbamoyl-4,5-dihydro-3H-2,3-benzodiazepine]",IC50,1.2 µM
